Measured values published in patent EP4603105A1, “PHARMACEUTICAL COMPOSITION CONTAINING CYCLIC COMPOUND HAVING SELECTIVE KRAS INHIBITORY EFFECT AGAINST HRAS AND NRAS” (CHUGAI SEIYAKU KABUSHIKI KAISHA, priority 2022, dated 2024).
Read-outs that look alike come from different tables or passages of the source. *1 amine or outer side, *2 acyl side, *3 side chain or, on linkers, in order; H or OH if unused. Where a SMILES comes first, the peptide text is derived from it. Bridges are numbered along the chain shown (N, C = ends). [ ]: non-standard residue; d: D form. The star is where a group is joined. hPhe(3-Cl-4-CF3) = N[C@@H](CCc1ccc(C(F)(F)F)c(Cl)c1)C(=O)O; NPrPhe(4-CF3) = CCCN[C@@H](Cc1ccc(C(F)(F)F)cc1)C(=O)O; X46 = C=CCCN([C@@H](Cc1ccc(C)cc1)C(=O)[*:2])[*:1]; NMeGly(cPent) = CN[C@H](C(=O)O)C1CCCC1; Pro(4,4-F2) = O=C(O)[C@@H]1CC(F)(F)CN1; NMeAllylGly = C=CC[C@H](NC)C(=O)O; Hyp = O=C(O)[C@@H]1C[C@@H](O)CN1; NMeD = CN[C@@H](CC(=O)O)C(=O)O; NMeL = CN[C@@H](CC(C)C)C(=O)O; Morpholide = C1CN(*)CCO1; Ac5c = NC1(C(=O)O)CCCC1; Aze = O=C(O)[C@@H]1CCN1; Ac4c = NC1(C(=O)O)CCC1; Sar = CNCC(=O)O

Tests used:
[1] = target: GDP-bound NRAS wild-type protein (Homo sapiens, UniProt P01111); experiment: Binding to NRAS by surface plasmon resonance (SPR), KD and KD ratio to KRAS
Outline: (§1)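 Affinity is measured by surface plasmon resonance at 30°C against captured, GDP-loaded RAS carrying a biotinylated Avi tag. Compounds are titrated by single-cycle kinetics, and KD comes from a 1:1 fit.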

HRAS wild-type protein = HRAS wild-type protein (Homo sapiens, UniProt P01112); experiment: Binding to HRAS by surface plasmon resonance (SPR), KD and KD ratio to KRAS
Outline: as §1

[2] = test system: human lung cancer strain NCI-H441; type: cell-based
Outline: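 Readout: […] after the ATP-based reagent. Compound: serial dilutions in dimethyl sulfoxide.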

[3] = ratio of KD for GDP-bound NRAS wild-type protein to KD for KRAS
[4] = ratio of KD for HRAS wild-type protein to KD for KRAS
[5] = ratio of the KD value with respect to GDP-bound NRAS wild-type protein to the KD value with respect to KRAS
[6] = ratio of the KD value with respect to HRAS wild-type protein to the KD value with respect to KRAS

HRAS wild-type protein, sequence (P01112 whole entry): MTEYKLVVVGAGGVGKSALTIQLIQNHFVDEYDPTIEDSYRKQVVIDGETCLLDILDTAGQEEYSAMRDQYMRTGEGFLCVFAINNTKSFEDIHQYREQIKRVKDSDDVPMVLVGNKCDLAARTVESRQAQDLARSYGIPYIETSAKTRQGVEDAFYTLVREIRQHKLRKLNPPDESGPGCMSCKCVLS
GDP-bound NRAS wild-type protein, sequence (P01111 whole entry): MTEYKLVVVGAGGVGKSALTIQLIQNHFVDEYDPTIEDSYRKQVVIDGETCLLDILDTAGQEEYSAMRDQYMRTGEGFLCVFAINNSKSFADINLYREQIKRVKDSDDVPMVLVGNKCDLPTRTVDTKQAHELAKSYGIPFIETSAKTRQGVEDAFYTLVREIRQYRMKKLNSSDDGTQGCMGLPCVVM

Row | SMILES | IC50 [2] [nM] | NRAS /KRAS [1, 3] | HRAS /KRAS (HRAS wild-type protein; [4]) | NRAS /KRAS [1, 5] | HRAS /KRAS (HRAS wild-type protein; [6]) | other results
1 | CCO[C@@H]1C[C@H]2C(=O)NC3(CC(C)(C)C3)C(=O)N(C)[C@@H](C3CCCC3)C(=O)N(C)[C@H](C(=O)N(C)CC)CC(=O)N(C)[C@@H](CC)C(=O)N[C@@H]([C@@H](C)CC)C(=O)N(C)CC(=O)N(C)[C@H]3C/C=C\CCN(C3=O)[C@@H](Cc3ccc(C)cc3)C(=O)N(C)CC(=O)N[C@@H](CCc3ccc(C(F)(F)F)c(Cl)c3)C(=O)N2C1 [PP1880] | 15.6 |  |  |  |  | NRAS /KRAS ([1]; ratio of KD value for GDP-bound NRAS wild-type protein to KD value for KRAS (SPR)): A (a compound having 10 or more and less than 20 is denoted as A); HRAS /KRAS (HRAS wild-type protein; ratio of KD value for HRAS wild-type protein to KD value for KRAS (SPR)): B (a compound having 3 or more and less than 10 is denoted as B)
2 | CCCN1C(=O)CN(C)C(=O)CN(C)C(=O)[C@H]([C@@H](C)CC)NC(=O)[C@H](CC(C)C)N(C)C(=O)C[C@@H](C(=O)N2CCOCC2)NC(=O)[C@H](C2CCCC2)N(C)C(=O)C2(CCC2)NC(=O)[C@@H]2CC(F)(F)CN2C(=O)[C@H](CCc2ccc(C(F)(F)F)c(Cl)c2)NC(=O)CN(C)C(=O)[C@@H]1Cc1ccc(C(F)(F)F)cc1 [PP0322] ([NMeL]I[Sar][Sar][NPrPhe(4-CF3)][Sar][hPhe(3-Cl-4-CF3)][Pro(4,4-F2)][Ac4c][NMeGly(cPent)]D-Morpholide; lactam N-11) | 74.2 | B (a compound having 3 or more and less than 10 is denoted as B) | C (A compound having a KD ratio of 0.1 or more and less than 3 is denoted as C) |  |  | 
3 | CCO[C@@H]1C[C@H]2C(=O)NC3(CCC3)C(=O)N(C)[C@@H](C3CCCC3)C(=O)N(C)[C@H](C(=O)N(C)C)CC(=O)N(C)[C@@H](CC(F)F)C(=O)N[C@@H]([C@@H](C)CC)C(=O)N(C)CC(=O)N(C)[C@H]3C/C=C\CCN(C3=O)[C@@H](Cc3ccc(C(F)(F)F)cc3)C(=O)N(C)CC(=O)N[C@@H](CCc3cc(F)c(C(F)(F)F)c(F)c3)C(=O)N2C1 [PP1120] | 20.6 | A (a compound having 10 or more and less than 20 is denoted as A) | A (a compound having 10 or more and less than 20 is denoted as A) |  |  | 
4 | CCO[C@@H]1C[C@H]2C(=O)NC3(CCCC3)C(=O)N(C)[C@@H](C3CCCC3)C(=O)N(C)[C@H](C(=O)N3CCOCC3)CC(=O)N(C)[C@@H](CC(C)C)C(=O)N[C@@H]([C@@H](C)CC)C(=O)N(C)CC(=O)N(C)[C@H]3CCCCCN(C3=O)[C@@H](Cc3ccc(C(F)(F)F)cc3)C(=O)N(C)CC(=O)N[C@@H](CCc3cc(F)c(C(F)(F)F)c(F)c3)C(=O)N2C1 [PP0492] | 31.9 |  |  | B (a compound having 3 or more and less than 10 is denoted as B) | B (a compound having 3 or more and less than 10 is denoted as B) | 
5 | C=CCCN1C(=O)[C@H](CC=C)N(C)C(=O)CN(C)C(=O)[C@H]([C@@H](C)CC)NC(=O)[C@H](CC(C)C)N(C)C(=O)C[C@@H](C(=O)N2CCOCC2)N(C)C(=O)[C@H](C2CCCC2)N(C)C(=O)C2(CCCC2)NC(=O)[C@@H]2CCCN2C(=O)[C@H](CCc2ccc(C(F)(F)F)c(Cl)c2)NC(=O)CN(C)C(=O)[C@@H]1Cc1ccc(C)cc1 [PP0140] ([NMeL]I[Sar][NMeAllylGly][X46][Sar][hPhe(3-Cl-4-CF3)]P[Ac5c][NMeGly(cPent)][NMeD]-Morpholide; lactam N-11) | 712 | C (A compound having a KD ratio of 0.1 or more and less than 3 is denoted as C) | B (a compound having 3 or more and less than 10 is denoted as B) |  |  | 
6 | CC[C@H](C)[C@@H]1NC(=O)[C@H](CC(C)C)N(C)C(=O)C[C@@H](C(=O)N(C)C)N(C)C(=O)[C@H](C2CCCC2)N(C)C(=O)C2(CCC2)NC(=O)[C@@H]2CC(F)(F)CN2C(=O)[C@H](CCc2cc(F)c(C(F)(F)F)c(F)c2)NC(=O)CN(C)C(=O)[C@H](Cc2ccc(C(F)(F)F)cc2)N2CCCC[C@@H](C2=O)N(C)C(=O)CN(C)C1=O [PP0577] | 2.4 |  |  | C (A compound having a KD ratio of 0.1 or more and less than 3 is denoted as C) | C (A compound having a KD ratio of 0.1 or more and less than 3 is denoted as C) | 
7 | CCC[C@H]1C(=O)N[C@@H]([C@@H](C)CC)C(=O)N(C)CC(=O)N(C)[C@H]2C/C=C\CCN(C2=O)[C@@H](CC2CCC(F)(F)CC2)C(=O)N(C)CC(=O)N[C@@H](CCc2ccc(C(F)(F)F)c(OC)c2)C(=O)N2C[C@H](OCC)C[C@H]2C(=O)N(C)C2(CCC2)C(=O)N(C)[C@@H](C2CCCC2)C(=O)N(C)[C@H](C(=O)N(C)C)CC(=O)N1C [PP2348] | 52.7 |  |  | A (a compound having 10 or more and less than 20 is denoted as A) | A (a compound having 10 or more and less than 20 is denoted as A) | 
8 | CCO[C@@H]1C[C@H]2C(=O)NC3(CC(C)(C)C3)C(=O)N(C)[C@@H](C3CCCC3)C(=O)N(C)[C@H](C(=O)N(C)CC)CC(=O)N(C)[C@@H](CC(C)C)C(=O)N[C@@H]([C@@H](C)CC)C(=O)N(C)CC(=O)N(C)[C@H]3C/C=C\CCN(C3=O)[C@@H](Cc3ccc(C(F)F)cc3)C(=O)N(C)CC(=O)N[C@@H](CCc3ccc(Cl)c(Cl)c3)C(=O)N2C1 [PP2827] | 21 | A (a compound having 10 or more and less than 20 is denoted as A) | B (a compound having 3 or more and less than 10 is denoted as B) |  |  | 
9 | CCOC[C@H]1C(=O)N[C@@H]([C@@H](C)CC)C(=O)N(C)CC(=O)N(C)[C@H]2C/C=C\CCN(C2=O)[C@@H](Cc2ccc(OC)cc2)C(=O)N(C)CC(=O)N[C@@H](CCc2ccc(C(F)(F)F)c(OC)c2)C(=O)N2C[C@@H](C)C[C@H]2C(=O)NC2(CC(C)(C)C2)C(=O)N(C)[C@@H](C2CCCC2)C(=O)N(C)[C@H](C(=O)N(C)CC)CC(=O)N1C [PP2702] |  | A (a compound having 10 or more and less than 20 is denoted as A) | B (a compound having 3 or more and less than 10 is denoted as B) |  |  | IC50 ([2]; NCI-H441 cells, 4 days, CellTiter-Glo, read-out: NCl-H441 IC50): 21.4 nM
10 | CC[C@H](C)[C@@H]1NC(=O)[C@H](CC(C)C)N(C)C(=O)C[C@@H](C(=O)N2CCOCC2)N(C)C(=O)[C@H](C2CCCC2)N(C)C(=O)C2(CCCC2)NC(=O)[C@@H]2CCCN2C(=O)[C@H](CCc2ccc(C(F)(F)F)c(Cl)c2)NC(=O)CN(C)C(=O)[C@H](Cc2ccc(C)cc2)N2CCCCC[C@@H](C2=O)N(C)C(=O)CN(C)C1=O [PP0317] | 32.2 | B (a compound having 3 or more and less than 10 is denoted as B) | B (a compound having 3 or more and less than 10 is denoted as B) |  |  | 
11 | CCCN(C)C(=O)[C@@H]1CC(=O)N(C)[C@@H](COCC)C(=O)N[C@@H]([C@@H](C)CC)C(=O)N(C)CC(=O)N(C)[C@H]2C/C=C\CCN(C2=O)[C@@H](Cc2ccc(C(F)(F)F)cc2)C(=O)N(C)CC(=O)N[C@@H](CCc2ccc(C(F)(F)F)c(OC)c2)C(=O)N2C[C@H](OCC)C[C@H]2C(=O)NC2(CC(C)(C)C2)C(=O)N(C)[C@@H](C2CCCC2)C(=O)N1C [PP2012] | 11.6 |  |  | AA (a compound having 20 or more is denoted as AA) | A (a compound having 10 or more and less than 20 is denoted as A) | 
12 | C=CCCC[C@H]1C(=O)N[C@@H]([C@@H](C)CC)C(=O)N(C)CC(=O)N(C)[C@H]2CCCCN(C2=O)[C@@H](Cc2ccc(C(F)(F)F)cc2)C(=O)N(C)CC(=O)N[C@@H](CCc2cc(F)c(C(F)(F)F)c(F)c2)C(=O)N2C[C@H](OCC)C[C@H]2C(=O)N[C@](C)(CC=C)C(=O)N(C)[C@@H](C2CCCC2)C(=O)N(C)[C@H](C(=O)N2CCOCC2)CC(=O)N1C [PP0876] | 7.1 | C (A compound having a KD ratio of 0.1 or more and less than 3 is denoted as C) | C (A compound having a KD ratio of 0.1 or more and less than 3 is denoted as C) |  |  | 
13 | CCO[C@@H]1C[C@H]2C(=O)NC3(CCC3)C(=O)N(C)[C@@H](C3CCCC3)C(=O)N(C)[C@H](C(=O)N(C)CCOC)CC(=O)N(C)[C@@H](CC3CC3)C(=O)N[C@@H]([C@@H](C)CC)C(=O)N(C)CC(=O)N(C)[C@H]3C/C=C\CCN(C3=O)[C@@H](Cc3ccc(C(F)(F)F)cc3)C(=O)N(C)CC(=O)N[C@@H](CCc3ccc4sccc4c3)C(=O)N2C1 [PP1328] | 134 |  |  |  |  | NRAS /KRAS ([1]; ratio of KD with respect to GDP-bound NRAS wild-type protein to KD with respect to KRAS): A (a compound having 10 or more and less than 20 is denoted as A); HRAS /KRAS (HRAS wild-type protein; ratio of KD with respect to HRAS wild-type protein to KD with respect to KRAS): A (a compound having 10 or more and less than 20 is denoted as A)
14 | CCCN1C(=O)[C@@H]2CCN2C(=O)CN(C)C(=O)[C@H]([C@@H](C)CC)NC(=O)[C@H](CC(C)C)N(C)C(=O)C[C@@H](C(=O)N2CCOCC2)N(C)C(=O)[C@H](C2CCCC2)N(C)C(=O)C2(CCCC2)NC(=O)[C@@H]2C[C@@H](OCC)CN2C(=O)[C@H](CCc2ccc(C(F)(F)F)c(Cl)c2)NC(=O)CN(C)C(=O)[C@@H]1Cc1ccc(C(F)(F)F)cc1 [PP0410] ([NMeL]I[Sar][Aze][NPrPhe(4-CF3)][Sar][hPhe(3-Cl-4-CF3)][Hyp](Et)[Ac5c][NMeGly(cPent)][NMeD]-Morpholide; lactam N-11) | 1.4 |  |  | C (A compound having a KD ratio of 0.1 or more and less than 3 is denoted as C) | B (a compound having 3 or more and less than 10 is denoted as B) | 
15 | CCC[C@H]1C(=O)N[C@@H](C2CCCC2)C(=O)N(C)CC(=O)N(C)[C@H]2C/C=C\CCN(C2=O)[C@@H](Cc2ccc(C)cc2)C(=O)N(C)CC(=O)N[C@@H](CCc2ccc(C(F)(F)F)c(OC)c2)C(=O)N2C[C@H](OCC)C[C@H]2C(=O)NC2(CC(C)(C)C2)C(=O)N(C)[C@@H](C2CCCC2)C(=O)N(C)[C@H](C(=O)N(C)C)CC(=O)N1C [PP2992] | 7.5 | AA (a compound having 20 or more is denoted as AA) | A (a compound having 10 or more and less than 20 is denoted as A) |  |  | 
